# From ChEMBL document CHEMBL1201862, “PubChem BioAssay data set” (2004)
#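 Grown in 96-well plates, cells were treated for 48 hours with each compound at five concentrations. Insufficient inhibition: endpoint recorded as highest concentration tested. At the GI50, growth is halved.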 The source made the active and inactive calls. Rule as the data show it: active = GI50 up to about 1.1 µM and inactive = higher.
# Legend:
# Assay in all cases: NCI-60 cell line screen, 48 h
# [1] = system: Malme-3M
# [2] = system: SW-620
# [3] = system: M14
# [4] = system: NCI-H522
# [5] = system: COLO 205
# [6] = system: A549
# [7] = system: TK-10
# [8] = system: SK-OV-3
# [9] = system: IGROV-1
# [10] = system: HL-60
# [11] = system: EKVX
# [12] = system: RPMI-8226
# [13] = system: NCI-H23
# [14] = system: NCI/ADR-RES
# [15] = system: SN12C
# [16] = system: SK-MEL-5
# [17] = system: OVCAR-4
# [18] = system: SR
# [19] = system: NCI-H460
# [20] = system: SF-539
SMILES,GI50 [1],GI50 [2],GI50 [3],GI50 [4],GI50 [5],GI50 [6],GI50 [7],GI50 [8],GI50 [9],GI50 [10],GI50 [11],GI50 [12],GI50 [13],GI50 [14],GI50 [15],GI50 [16],GI50 [17],GI50 [18],GI50 [19],GI50 [20]
COC(=O)C(NC(=O)OC(C)(C)C)P(=O)(OC)OC (stereo not given),> 100 µM (inactive),> 100 µM (inactive),> 100 µM (inactive),> 100 µM (inactive),> 100 µM (inactive),> 100 µM (inactive),> 100 µM (inactive),> 100 µM (inactive),> 100 µM (inactive),> 100 µM (inactive),> 100 µM (inactive),> 100 µM (inactive),> 100 µM (inactive),> 100 µM (inactive),> 100 µM (inactive),> 100 µM (inactive),> 100 µM (inactive),> 100 µM (inactive),,
CCOC(=O)c1csc(NC(=O)CN2CCCC2)n1,,> 100 µM (inactive),> 100 µM (inactive),,> 100 µM (inactive),> 100 µM (inactive),> 100 µM (inactive),> 100 µM (inactive),> 100 µM (inactive),> 100 µM (inactive),> 100 µM (inactive),> 100 µM (inactive),> 100 µM (inactive),> 100 µM (inactive),,> 100 µM (inactive),> 100 µM (inactive),> 100 µM (inactive),> 100 µM (inactive),> 100 µM (inactive)
O=C1CC2(CCC(O)(c3ccc4ccccc4c3)C(C(=O)c3ccc4ccccc4c3)C2)C(=O)c2ccccc2N1 (stereo not given),> 100 µM (inactive),> 100 µM (inactive),53.1 µM (inactive),,> 100 µM (inactive),> 100 µM (inactive),> 100 µM (inactive),> 100 µM (inactive),> 100 µM (inactive),> 100 µM (inactive),> 100 µM (inactive),,> 100 µM (inactive),> 100 µM (inactive),> 100 µM (inactive),23 µM (inactive),,> 100 µM (inactive),29 µM (inactive),> 100 µM (inactive)
O=C1c2cc3c(cc2CC12Cc1ccc4c(c1C2=O)CCC4)CCCC3 (stereo not given),60 µM (inactive),> 100 µM (inactive),> 100 µM (inactive),> 100 µM (inactive),,> 100 µM (inactive),> 100 µM (inactive),> 100 µM (inactive),> 100 µM (inactive),> 100 µM (inactive),> 100 µM (inactive),> 100 µM (inactive),> 100 µM (inactive),> 100 µM (inactive),,> 100 µM (inactive),> 100 µM (inactive),60 µM (inactive),> 100 µM (inactive),> 100 µM (inactive)
CN(C)c1cccc2c1C(=O)C=CC21CCc2ccc(N(C)C)c3c(N(C)C)ccc1c23 (stereo not given),11.5 µM (inactive),16.1 µM (inactive),14.2 µM (inactive),,15.1 µM (inactive),18.1 µM (inactive),14.6 µM (inactive),10.1 µM (inactive),13.4 µM (inactive),5.01 µM (inactive),20 µM (inactive),16.9 µM (inactive),16.9 µM (inactive),56.8 µM (inactive),12.2 µM (inactive),16.3 µM (inactive),14.8 µM (inactive),12 µM (inactive),9.04 µM (inactive),16.3 µM (inactive)
Cc1ccc(S(=O)(=O)NCCCSCCN)cc1,,> 100 µM (inactive),> 100 µM (inactive),> 100 µM (inactive),> 100 µM (inactive),> 100 µM (inactive),> 100 µM (inactive),> 100 µM (inactive),,> 100 µM (inactive),,,> 100 µM (inactive),> 100 µM (inactive),> 100 µM (inactive),22 µM (inactive),> 100 µM (inactive),> 100 µM (inactive),> 100 µM (inactive),
C[N+](C)(C)/C=N\c1cccc2c1CCCC2,> 100 µM (inactive),,> 100 µM (inactive),,43.4 µM (inactive),72.9 µM (inactive),> 100 µM (inactive),> 100 µM (inactive),75.3 µM (inactive),0.0885 µM (active),> 100 µM (inactive),21.5 µM (inactive),79.6 µM (inactive),> 100 µM (inactive),> 100 µM (inactive),41.2 µM (inactive),> 100 µM (inactive),16 µM (inactive),,> 100 µM (inactive)
c1ccc2c(c1)c1c(n2CCOCCCN2CCCCC2)CCCC1,18 µM (inactive),19.5 µM (inactive),27.9 µM (inactive),15.3 µM (inactive),20.4 µM (inactive),18.4 µM (inactive),16.4 µM (inactive),,14.7 µM (inactive),10.1 µM (inactive),17.1 µM (inactive),31.1 µM (inactive),17.6 µM (inactive),17.9 µM (inactive),13.6 µM (inactive),20.6 µM (inactive),12.5 µM (inactive),15.2 µM (inactive),13.9 µM (inactive),15.7 µM (inactive)
